# Tests used:
# [1] = tested on: BRD pathogens, M. haemolytica and P. multocida; assay: MIC screening panel of BRD pathogens (antibacterial / non-antibacterial); details: read-out: antibacterial / non-antibacterial (MIC for the BRD pathogens)
# IL-1β = assay: LPS-stimulated whole bovine blood assay, MSD cytokine detection; assay type: cell-based; details: overstimulation of IL-1β, LPS-stimulated bovine whole blood
# TNF-α = assay: as above; assay type: cell-based; details: Bos taurus, LPS-stimulated bovine whole blood; read-out: TNF-α (IC50 μM)
# IL-6 = assay: as above; assay type: cell-based; details: Bos taurus, LPS-stimulated bovine whole blood; read-out: IL-6 (IC50 μM)
# Description: In order to correlate RNA sequencing data to cytokine changes the whole blood assay was utilized. […] The enhancement result represents an overall stimulation of cytokine levels due to cellular stress or potential toxicity with increasing concentrations of the compound, representing a typical bell shape response curve for immunomodulatory activity.
SMILES,MIC [1],IL-1β OS of LPS (IL-1β),IC50 (TNF-α),IC50 (IL-6)
"CCCNC[C@]1(O)[C@H](C)O[C@@H](O[C@H]2[C@H](C)[C@@H](O[C@@H]3O[C@H](C)C[C@H](N(C)C(=O)N(C)c4ccncc4C)[C@H]3O)[C@](C)(O)C[C@@H](C)CN[C@H](C)[C@@H](O)[C@](C)(O)[C@@H](CC)OC(=O)[C@@H]2C)C[C@@]1(C)OC [Example H-62, 1-((2S,3R,4S,6R)-2-(((2R,3S,4R,5R,8R,10R,11R,12S,13S,14R)-2-ethyl-3,4,10-trihydroxy-13-(((2R,4R,5S,6S)-5-hydroxy-4-methoxy-4,6-dimethyl-5-((propylamino)methyl)tetrahydro-2H-pyran-2-yl)oxy)-3,5,8,10,12,14-hexamethyl-15-oxo-1-oxa-6-azacyclopentadecan-11-yl)oxy)-3-hydroxy-6-methyltetrahydro-2H-pyran-4-yl)-1,3-dimethyl-3-(3-methylpyridin-4-yl)urea]",> 64 µg/mL,<1 µM,1 µM,1 µM
"CC[C@H]1OC(=O)[C@H](C)[C@@H](O[C@H]2C[C@@](C)(OC)[C@](O)(CC#N)[C@H](C)O2)[C@H](C)[C@@H](O[C@@H]2O[C@H](C)C[C@H](N(C)C(=O)N(C)c3ccccc3)[C@H]2O)[C@](C)(O)C[C@@H](C)CN[C@H](C)[C@@H](O)[C@]1(C)O [Example G-2, 1-((2S,3R,4S,6R)-2-(((2R,3S,4R,5R,8R,10R,11R,12S,13S,14R)-13-(((2R,4R,5S,6S)-5-(cyanomethyl)-5-hydroxy-4-methoxy-4,6-dimethyltetrahydro-2H-pyran-2-yl)oxy)-2-ethyl-3,4,10-trihydroxy-3,5,8,10,12,14-hexamethyl-15-oxo-1-oxa-6-azacyclopentadecan-11-yl)oxy)-3-hydroxy-6-methyltetrahydro-2H-pyran-4-yl)-1,3-dimethyl-3-phenylurea]",> 64 µg/mL,100 µM,80 µM,70 µM
"CC[C@H]1OC(=O)[C@H](C)[C@@H](O[C@H]2C[C@@](C)(OC)[C@](O)(CNCCS(=O)(=O)c3ccccc3)[C@H](C)O2)[C@H](C)[C@@H](O[C@@H]2O[C@H](C)C[C@H](N(C)C(=O)N(C)c3ccccc3)[C@H]2O)[C@](C)(O)C[C@@H](C)CN[C@H](C)[C@@H](O)[C@]1(C)O [Example H-43, 1-((2S,3R,4S,6R)-2-(((2R,3S,4R,5R,8R,10R,11R,12S,13S,14R)-2-ethyl-3,4,10-trihydroxy-13-(((2R,4R,5S,6S)-5-hydroxy-4-methoxy-4,6-dimethyl-5-(((2-(phenylsulfonyl)ethyl)amino)methyl)tetrahydro-2H-pyran-2-yl)oxy)-3,5,8,10,12,14-hexamethyl-15-oxo-1-oxa-6-azacyclopentadecan-11-yl)oxy)-3-hydroxy-6-methyltetrahydro-2H-pyran-4-yl)-1,3-dimethyl-3-phenylurea]",> 64 µg/mL,16 µM,34 µM,29 µM
"CC[C@H]1OC(=O)[C@H](C)[C@@H](O[C@H]2C[C@@](C)(OC)[C@](O)(CN3CCOCC3)[C@H](C)O2)[C@H](C)[C@@H](O[C@@H]2O[C@H](C)C[C@H](N(C)C(=O)N(C)c3ccccc3)[C@H]2O)[C@](C)(O)C[C@@H](C)CN[C@H](C)[C@@H](O)[C@]1(C)O [Example J-10, 1-((2S,3R,4S,6R)-2-(((2R,3S,4R,5R,8R,10R,11R,12S,13S,14R)-2-ethyl-3,4,10-trihydroxy-13-(((2R,4R,5S,6S)-5-hydroxy-4-methoxy-4,6-dimethyl-5-(morpholinomethyl)tetrahydro-2H-pyran-2-yl)oxy)-3,5,8,10,12,14-hexamethyl-15-oxo-1-oxa-6-azacyclopentadecan-11-yl)oxy)-3-hydroxy-6-methyltetrahydro-2H-pyran-4-yl)-1,3-dimethyl-3-phenylurea]",> 64 µg/mL,40 µM,20 µM,45 µM
"CC[C@H]1OC(=O)[C@H](C)[C@@H](O[C@H]2C[C@@](C)(OC)[C@](O)(CNCC3CCN(C(C)=O)CC3)[C@H](C)O2)[C@H](C)[C@@H](O[C@@H]2O[C@H](C)C[C@H](N(C)C(=O)N(C)c3ccccc3)[C@H]2O)[C@](C)(O)C[C@@H](C)CN[C@H](C)[C@@H](O)[C@]1(C)O [Example H-31, 1-((2S,3R,4S,6R)-2-(((2R,3S,4R,5R,8R,10R,11R,12S,13S,14R)-13-(((2R,4R,5S,6S)-5-((((1-acetylpiperidin-4-yl)methyl)amino)methyl)-5-hydroxy-4-methoxy-4,6-dimethyltetrahydro-2H-pyran-2-yl)oxy)-2-ethyl-3,4,10-trihydroxy-3,5,8,10,12,14-hexamethyl-15-oxo-1-oxa-6-azacyclopentadecan-11-yl)oxy)-3-hydroxy-6-methyltetrahydro-2H-pyran-4-yl)-1,3-dimethyl-3-phenylurea]",> 64 µg/mL,81 µM,41 µM,41 µM
"CC[C@H]1OC(=O)[C@H](C)[C@@H](O[C@H]2C[C@@](C)(OC)[C@](O)(CCl)[C@H](C)O2)[C@H](C)[C@@H](O[C@@H]2O[C@H](C)C[C@H](N(C)C(=O)N(C)c3ccccc3)[C@H]2O)[C@](C)(O)C[C@@H](C)CN[C@H](C)[C@@H](O)[C@]1(C)O [Example E-2, 1-((2S,3R,4S,6R)-2-(((2R,3S,4R,5R,8R,10R,11R,12S,13S,14R)-13-(((2R,4R,5S,6S)-5-(chloromethyl)-5-hydroxy-4-methoxy-4,6-dimethyltetrahydro-2H-pyran-2-yl)oxy)-2-ethyl-3,4,10-trihydroxy-3,5,8,10,12,14-hexamethyl-15-oxo-1-oxa-6-azacyclopentadecan-11-yl)oxy)-3-hydroxy-6-methyltetrahydro-2H-pyran-4-yl)-1,3-dimethyl-3-phenylurea]",> 64 µg/mL,40 µM,40 µM,35 µM
"CCCNC[C@]1(O)[C@H](C)O[C@@H](O[C@H]2[C@H](C)[C@@H](O[C@@H]3O[C@H](C)C[C@H](N(C)C(=O)N(C)c4ccncc4)[C@H]3O)[C@](C)(O)C[C@@H](C)CN[C@H](C)[C@@H](O)[C@](C)(O)[C@@H](CC)OC(=O)[C@@H]2C)C[C@@]1(C)OC [Example H-59, 1-((2S,3R,4S,6R)-2-(((2R,3S,4R,5R,8R,10R,11R,12S,13S,14R)-2-ethyl-3,4,10-trihydroxy-13-(((2R,4R,5S,6S)-5-hydroxy-4-methoxy-4,6-dimethyl-5-((propylamino)methyl)tetrahydro-2H-pyran-2-yl)oxy)-3,5,8,10,12,14-hexamethyl-15-oxo-1-oxa-6-azacyclopentadecan-11-yl)oxy)-3-hydroxy-6-methyltetrahydro-2H-pyran-4-yl)-1,3-dimethyl-3-(pyridin-4-yl)urea]",> 64 µg/mL,16 µM,9 µM,30 µM
"CC[C@H]1OC(=O)[C@H](C)[C@@H](O[C@H]2C[C@@](C)(OC)[C@](O)(CN3CCCC3)[C@H](C)O2)[C@H](C)[C@@H](O[C@@H]2O[C@H](C)C[C@H](N(C)C(=O)N(C)c3ccccc3)[C@H]2O)[C@](C)(O)C[C@@H](C)CN[C@H](C)[C@@H](O)[C@]1(C)O [Example J-12, 1-((2S,3R,4S,6R)-2-(((2R,3S,4R,5R,8R,10R,11R,12S,13S,14R)-2-ethyl-3,4,10-trihydroxy-13-(((2R,4R,5S,6S)-5-hydroxy-4-methoxy-4,6-dimethyl-5-(pyrrolidin-1-ylmethyl)tetrahydro-2H-pyran-2-yl)oxy)-3,5,8,10,12,14-hexamethyl-15-oxo-1-oxa-6-azacyclopentadecan-11-yl)oxy)-3-hydroxy-6-methyltetrahydro-2H-pyran-4-yl)-1,3-dimethyl-3-phenylurea]",> 64 µg/mL,22 µM,34 µM,126 µM
"CC[C@H]1OC(=O)[C@H](C)[C@@H](O[C@H]2C[C@@](C)(OC)[C@@H](O)[C@H](C)O2)[C@H](C)[C@@H](O[C@@H]2O[C@H](C)C[C@H](N(C)C(=O)Nc3ccc(F)cc3)[C@H]2O)[C@](C)(O)C[C@@H](C)CN(C)[C@H](C)[C@@H](O)[C@]1(C)O [Example B-9, 1-((2S,3R,4S,6R)-2-(((2R,3S,4R,5R,8R,10R,11R,12S,13S,14R)-2-ethyl-3,4,10-trihydroxy-13-(((2R,4R,5S,6S)-5-hydroxy-4-methoxy-4,6-dimethyltetrahydro-2H-pyran-2-yl)oxy)-3,5,6,8,10,12,14-heptamethyl-15-oxo-1-oxa-6-azacyclopentadecan-11-yl)oxy)-3-hydroxy-6-methyltetrahydro-2H-pyran-4-yl)-3-(4-fluorophenyl)-1-methylurea]",> 64 µg/mL,28 µM,107 µM,116 µM
"CC[C@H]1OC(=O)[C@H](C)[C@@H](O[C@H]2C[C@@](C)(OC)[C@](O)(CNc3ccccc3)[C@H](C)O2)[C@H](C)[C@@H](O[C@@H]2O[C@H](C)C[C@H](N(C)C(=O)N(C)c3ccccc3)[C@H]2O)[C@](C)(O)C[C@@H](C)CN[C@H](C)[C@@H](O)[C@]1(C)O [Example H-32, 1-((2S,3R,4S,6R)-2-(((2R,3S,4R,5R,8R,10R,11R,12S,13S,14R)-2-ethyl-3,4,10-trihydroxy-13-(((2R,4R,5S,6S)-5-hydroxy-4-methoxy-4,6-dimethyl-5-((phenylamino)methyl)tetrahydro-2H-pyran-2-yl)oxy)-3,5,8,10,12,14-hexamethyl-15-oxo-1-oxa-6-azacyclopentadecan-11-yl)oxy)-3-hydroxy-6-methyltetrahydro-2H-pyran-4-yl)-1,3-dimethyl-3-phenylurea]",> 64 µg/mL,44 µM,11 µM,8 µM
